Read-outs that look alike come from different tables or passages of the source. *1 amine or outer side, *2 acyl side, *3 side chain or, on linkers, in order; H or OH if unused. Where a SMILES comes first, the peptide text is derived from it. Side-chain parts run from the residue outwards. [ ]: non-standard residue; d: D form. The star is where a group is joined. αMePhe(2-F) = C[C@](N)(Cc1ccccc1F)C(=O)O; γGlu = O=C(O)[C@H](CCC(=O)[*:2])N[*:1]; αMeY = C[C@](N)(Cc1ccc(O)cc1)C(=O)O; αMeL = CC(C)C[C@](C)(N)C(=O)O; Lauroyl = CCCCCCCCCCCC(=O)*; AEEA = NCCOCCOCC(=O)O; Aib = CC(C)(N)C(=O)O
Columns and labels:
Type in all cases: cell-based
hGIPR = target: T1, hGIPR (Homo sapiens, UniProt P48546); experiment: Functional cAMP formation (HTRF) in HEK-293 clonal cells expressing hGIPR, 0.1% bovine casein, without or with 1.0% human serum albumin; conditions: 37° C.; for Emax: HEK293, cAMP, percent of maximal response to GIP(1-42)NH2, read-out: hGIPR Emax, % ± SEM; for EC50: cAMP, 0.1% bovine casein (no human serum albumin), geometric mean
T1 construct: expressed in transfected cells
T1 sequence (P48546 22-466): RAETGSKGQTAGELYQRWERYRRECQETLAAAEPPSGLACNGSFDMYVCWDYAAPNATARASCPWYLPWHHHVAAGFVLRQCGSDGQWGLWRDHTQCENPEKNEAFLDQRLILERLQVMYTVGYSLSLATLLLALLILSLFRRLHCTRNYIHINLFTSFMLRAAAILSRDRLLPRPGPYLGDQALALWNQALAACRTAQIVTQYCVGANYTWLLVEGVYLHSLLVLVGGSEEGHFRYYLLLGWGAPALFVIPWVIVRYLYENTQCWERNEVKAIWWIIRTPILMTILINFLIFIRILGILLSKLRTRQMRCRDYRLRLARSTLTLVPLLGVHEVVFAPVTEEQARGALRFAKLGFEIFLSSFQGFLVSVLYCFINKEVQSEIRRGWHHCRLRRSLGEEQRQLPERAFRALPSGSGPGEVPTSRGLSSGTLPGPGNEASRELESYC
How it was run: (§1)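 Cells were stimulated with peptide for 30 min at 37° C, then intracellular cAMP was measured by competitive HTRF (665/620 nm ratio) and converted to nM using a cAMP standard curve. Relative EC50 and Emax came from four-parameter logistic fits of percent maximal response against peptide concentration.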

hGLP-1R = hGLP-1R (Homo sapiens, UniProt P43220); experiment: Functional cAMP formation (HTRF) in HEK-293 clonal cells expressing hGLP-1R, 0.1% bovine casein, without or with 1.0% human serum albumin; design: expressed in transfected cells; conditions: for Emax: percent of maximal response to GLP-1(7-36)NH2; for EC50: cAMP
Sequence of hGLP-1R (P43220 24-463): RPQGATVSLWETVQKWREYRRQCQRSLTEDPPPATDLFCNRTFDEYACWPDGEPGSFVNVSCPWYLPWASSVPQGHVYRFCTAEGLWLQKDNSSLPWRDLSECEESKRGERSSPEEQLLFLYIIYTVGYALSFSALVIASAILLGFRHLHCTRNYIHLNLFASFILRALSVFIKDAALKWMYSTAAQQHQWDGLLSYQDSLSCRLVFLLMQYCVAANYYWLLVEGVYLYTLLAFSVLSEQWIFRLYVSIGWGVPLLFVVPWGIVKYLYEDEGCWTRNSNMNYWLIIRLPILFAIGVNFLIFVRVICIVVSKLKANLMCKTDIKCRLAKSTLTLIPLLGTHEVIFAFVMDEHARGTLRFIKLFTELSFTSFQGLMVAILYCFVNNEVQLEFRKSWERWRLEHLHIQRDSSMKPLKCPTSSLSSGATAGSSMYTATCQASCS
How it was run: as §1

hGCGR = target: T2, hGCGR (Homo sapiens, UniProt P47871); experiment: Functional cAMP formation (HTRF) in HEK-293 clonal cells expressing hGCGR, 0.1% bovine casein, without or with 1.0% human serum albumin; conditions: cAMP, 37° C.
T2 construct: expressed in transfected cells
T2 sequence (P47871 26-477): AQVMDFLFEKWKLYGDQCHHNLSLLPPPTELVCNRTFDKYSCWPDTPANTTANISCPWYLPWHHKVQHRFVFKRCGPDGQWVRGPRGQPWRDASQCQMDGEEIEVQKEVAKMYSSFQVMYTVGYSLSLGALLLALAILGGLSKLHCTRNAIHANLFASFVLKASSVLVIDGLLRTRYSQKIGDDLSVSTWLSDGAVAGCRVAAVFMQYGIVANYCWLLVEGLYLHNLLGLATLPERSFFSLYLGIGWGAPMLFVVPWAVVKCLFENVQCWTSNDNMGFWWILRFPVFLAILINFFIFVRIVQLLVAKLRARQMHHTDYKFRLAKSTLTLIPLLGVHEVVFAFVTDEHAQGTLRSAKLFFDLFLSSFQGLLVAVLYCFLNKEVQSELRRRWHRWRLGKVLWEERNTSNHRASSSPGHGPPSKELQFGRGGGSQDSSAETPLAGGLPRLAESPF
How it was run: as §1

[1] = 0.1% bovine casein and 1.0% human serum albumin
[2] = read-out: hGIPR EC50, nM (SEM, n)
[3] = HEK293, cAMP, 37° C., 0.1% bovine casein and 1.0% human serum albumin, read-out: hGLP-1R Emax, % ± SEM
[4] = 37° C., 0.1% bovine casein (no human serum albumin), geometric mean, read-out: hGLP-1R EC50, nM (SEM, n)
[5] = 37° C., 0.1% bovine casein and 1.0% human serum albumin, geometric mean (SEM, n), read-out: hGLP-1R EC50, nM (SEM, n)
[6] = 0.1% bovine casein (no human serum albumin), geometric mean, read-out: hGCGR EC50, nM (SEM, n)
[7] = 0.1% bovine casein and 1.0% human serum albumin, geometric mean (SEM, n), read-out: hGCGR EC50, nM (SEM, n)

| Compound | Emax (hGIPR; [1]) | Emax (hGIPR; 0.1% bovine casein, arithmetic mean) | EC50 (hGIPR; [2]) | Emax (hGLP-1R; [3]) | EC50 (hGLP-1R; [4]) | EC50 (hGLP-1R; [5]) | EC50 (hGCGR; [6]) | EC50 (hGCGR; [7]) | EC50 (hGIPR; hGIPR EC50, nM (SEM, n)) | Emax (hGLP-1R; HEK293, read-out: hGLP-1R Emax, % ± SEM, cAMP, 37° C., 0.1% bovine casein, arithmetic mean) | EC50 (hGLP-1R; hGLP-1R EC50, nM (SEM, n), 37° C., 0.1% bovine casein (no human serum albumin), geometric mean) | EC50 (hGCGR; hGCGR EC50, nM (SEM, n), 0.1% bovine casein (no human serum albumin), geometric mean) | EC50 (hGCGR; hGCGR EC50, nM (SEM, n), 0.1% bovine casein and 1.0% human serum albumin, geometric mean (SEM, n)) |
| --- | --- | --- | --- | --- | --- | --- | --- | --- | --- | --- | --- | --- | --- |
| CC[C@H](C)[C@H](NC(=O)[C@H](CC(C)C)NC(=O)[C@](C)(Cc1ccc(O)cc1)NC(=O)[C@H](CCCCNC(=O)COCCOCCNC(=O)COCCOCCNC(=O)CC[C@H](NC(=O)CCCCCCCCCCCCC(=O)O)C(=O)O)NC(=O)[C@@H](NC(=O)[C@H](Cc1ccccc1)NC(=O)[C@H](Cc1ccncc1)NC(=O)C(C)(C)NC(=O)[C@H](CCC(N)=O)NC(=O)[C@H](C)NC(=O)[C@H](CCC(N)=O)NC(=O)[C@H](CCCN)NC(=O)[C@H](CC(=O)O)NC(=O)[C@H](CC(C)C)NC(=O)[C@](C)(CC(C)C)NC(=O)[C@@H](NC(=O)C(C)(C)NC(=O)[C@H](Cc1ccncc1)NC(=O)[C@H](CC(=O)O)NC(=O)[C@H](CO)NC(=O)[C@@H](NC(=O)[C@](C)(Cc1ccccc1F)NC(=O)[C@@H](NC(=O)CNC(=O)[C@H](CCC(=O)O)NC(=O)C(C)(C)NC(=O)[C@@H](N)Cc1ccc(O)cc1)[C@@H](C)O)[C@@H](C)O)[C@@H](C)CC)[C@@H](C)CC)C(=O)N[C@@H](CCCCNC(=O)COCCOCCNC(=O)COCCOCCNC(=O)CC[C@H](NC(=O)CCCCCCCCCCCCC(=O)O)C(=O)O)C(=O)NCC(=O)NCC(=O)N1CCC[C@H]1C(=O)N[C@@H](CO)C(=O)N[C@@H](CO)C(=O)NCC(=O)N[C@@H](C)C(=O)N1CCC[C@H]1C(=O)N1CCC[C@H]1C(=O)N1CCC[C@H]1C(=O)N[C@@H](CO)C(N)=O [Example 444] | 83.6% | 93.6% | 0.0157 nM | 98.8% | 0.289 nM | 7.51 nM | > 9950 nM | > 9950 nM |  |  |  |  |  |
| CCCCCCCCCCCC(=O)N[C@@H](CCC(=O)NCCOCCOCC(=O)NCCOCCOCC(=O)NCCCC[C@H](NC(=O)CNC(=O)[C@H](CC(=O)O)NC(=O)[C@H](CC(C)C)NC(=O)[C@](C)(CC(C)C)NC(=O)[C@@H](NC(=O)C(C)(C)NC(=O)[C@H](CCCCNC(=O)COCCOCCNC(=O)COCCOCCNC(=O)CC[C@H](NC(=O)CCCCCCCCCCC)C(=O)O)NC(=O)[C@H](CC(=O)O)NC(=O)[C@H](CO)NC(=O)[C@@H](NC(=O)[C@](C)(Cc1ccccc1F)NC(=O)[C@@H](NC(=O)CNC(=O)[C@H](CCC(=O)O)NC(=O)C(C)(C)NC(=O)[C@@H](N)Cc1ccc(O)cc1)[C@@H](C)O)[C@@H](C)O)[C@@H](C)CC)C(=O)N[C@@H](C)C(=O)N[C@@H](CCC(N)=O)C(=O)NC(C)(C)C(=O)N[C@@H](CCC(=O)O)C(=O)N[C@@H](Cc1ccccc1)C(=O)N[C@H](C(=O)N[C@H](CCC(=O)O)C(=O)N[C@@](C)(Cc1ccc(O)cc1)C(=O)N[C@@H](CC(C)C)C(=O)N[C@H](C(=O)N[C@@H](CCC(=O)O)C(=O)NCC(=O)NCC(=O)N1CCC[C@H]1C(=O)N[C@@H](CO)C(=O)N[C@@H](CO)C(=O)NCC(=O)N[C@@H](C)C(=O)N1CCC[C@H]1C(=O)N1CCC[C@H]1C(=O)N1CCC[C@H]1C(=O)N[C@@H](CO)C(N)=O)[C@@H](C)CC)[C@@H](C)CC)C(=O)O [Example 445] (H-Y[Aib]EGT[αMePhe(2-F)]TSDK([AEEA-AEEA-γGlu-Lauroyl])[Aib]I[αMeL]LDGK([AEEA-AEEA-γGlu-Lauroyl])AQ[Aib]EFI[dE][αMeY]LIEGGPSSGAPPPS-NH2; N-terminus assumed) | 91.4% |  | 0.00728 nM | 100% | 0.0781 nM | 13.1 nM | > 9950 nM | > 9950 nM |  |  |  |  |  |
| CC[C@H](C)[C@H](NC(=O)[C@H](CC(C)C)NC(=O)[C@](C)(Cc1ccc(O)cc1)NC(=O)[C@H](CCCCNC(=O)COCCOCCNC(=O)COCCOCCNC(=O)CC[C@H](NC(=O)CCCCCCCCCOc1ccc(C(=O)O)cc1)C(=O)O)NC(=O)[C@@H](NC(=O)[C@H](Cc1ccccc1)NC(=O)[C@H](CCCN)NC(=O)C(C)(C)NC(=O)[C@H](CCC(N)=O)NC(=O)[C@H](C)NC(=O)[C@H](CCC(N)=O)NC(=O)[C@H](CCCN)NC(=O)[C@H](CC(=O)O)NC(=O)[C@H](CC(C)C)NC(=O)[C@](C)(CC(C)C)NC(=O)[C@@H](NC(=O)C(C)(C)NC(=O)[C@@H](NC(=O)[C@H](CC(=O)O)NC(=O)[C@H](CO)NC(=O)[C@@H](NC(=O)[C@](C)(Cc1ccccc1F)NC(=O)[C@@H](NC(=O)CNC(=O)[C@H](CCC(=O)O)NC(=O)C(C)(C)NC(=O)[C@@H](N)Cc1ccc(O)cc1)[C@@H](C)O)[C@@H](C)O)C(C)C)[C@@H](C)CC)[C@@H](C)CC)C(=O)N[C@@H](CCCCNC(=O)COCCOCCNC(=O)COCCOCCNC(=O)CC[C@H](NC(=O)CCCCCCCCCOc1ccc(C(=O)O)cc1)C(=O)O)C(=O)NCC(=O)NCC(=O)N1CCC[C@H]1C(=O)N[C@@H](CO)C(=O)N[C@@H](CO)C(=O)NCC(=O)N[C@@H](C)C(=O)N1CCC[C@H]1C(=O)N1CCC[C@H]1C(=O)N1CCC[C@H]1C(=O)N[C@@H](CO)C(N)=O [Example 447] |  |  |  |  |  |  |  |  | 0.017 nM | 105% | 0.219 nM | > 9950 nM | > 9950 nM |
